# Source: patent publication US10450297B2, “Sulfonyl amide derivatives for the treatment of abnormal cell growth” (Pfizer, Inc., priority 2007, dated 2019)
# Molecular target: FAK kinase (catalytic construct FAK(410-689)) (Homo sapiens (Human), UniProt Q05397)
# Assay: FAKcd kinase ELISA (inhibition of poly-glu-tyr phosphorylation by FAK(410-689))
# Type: biochemical
# Conditions: 50 μM final ATP
# Experimental: A. In-Vitro Activity of FAK:
# The assay protocol has three parts:
# 3. […] 4. […] 5. […] 6. […] 7. […] 9. […] 10. […] 12. […] 13. […] 14. Aliquot the FAKcd protein and store frozen at −80° C. II. FAK Activation 1. […] At t120 (t=120 minutes), add 10 μl of 150 mM ATP. […] Add 180 μl aliquots of the desalted material to NiNTA spin column and incubate on spin column 4. […] FAKcd Kinase ELISA 1. Coat 96-well Nunc MaxiSorp plates with poly-glu-tyr (pGT) at […]: Prepare 10 μg/ml of pGT in PBS and aliquot 100 μl/well. Incubate the plates at 37° C. overnight, aspirate the supernatant, wash the plates 3 times with Wash Buffer, and flick to dry before storing at 4° C. 2. Prepare compound stock solutions of 2.5 mM in 100% DMSO. The stocks are subsequently diluted to 60× of the final concentration in 100% DMSO, and diluted 1:5 in Kinase Phosphorylation Buffer. 3. […] Add 80 μl to each well for a final ATP concentration of 50 μM. 4. […] 5. Dilute on ice, FAKcd protein to 1:1000 in Kinase Phosphorylation Buffer. Dispense 30 μl per well. 6. Note: Linearity and the appropriate dilution must be pre-determined for each batch of protein. The enzyme concentration selected should be such that quantitation of the assay signal will be approximately 0.8-1.0 at OD450, and in the linear range of the reaction rate. 7. Prepare both a No ATP control (noise) and a No Compound Control (Signal): 8. (Noise) One blank row of wells receives 10 μl of 1:5 diluted compounds in DMSO, 80 μl of Phosphorylation buffer (minus ATP), and 30 μl FAKcd solution. 9. […] 10. Incubate reaction at room temperature for 15 minutes with gentle shaking on a plate shaker. 11. Terminate the reaction by aspirating off the reaction mixture and washing 3 times with wash buffer. 12. Dilute phospho-tyrosine HRP-conjugated (pY20HRP) antibody to 0.250 μg/ml (1:1000 of Stock) in blocking buffer. Dispense 100 μl per well, and incubate with shaking for 30 minutes at 25°. 13. Aspirate the supernatant and wash the plate 3 times with wash buffer. 14. Add 100 μl per well of room temperature TMB solution to initiate color development. Color development is terminated after approximately 15-30 sec. by the addition of 100 μl of 0.09M H2SO4 per well. 15. The signal is quantitated by measurement of absorbance at 450 nm on the BioRad ricroplate reader or a microplate reader capable of reading at OD450. 16. Inhibition of tyrosine kinase activity would result in a reduced absorbance signal. […] The values are reported as IC50s, μM concentration. FAK Inducible cell-based ELISA: Final Protocol Materials: […]
# Chain of FAK kinase (catalytic construct FAK(410-689)) (Q05397 410-689): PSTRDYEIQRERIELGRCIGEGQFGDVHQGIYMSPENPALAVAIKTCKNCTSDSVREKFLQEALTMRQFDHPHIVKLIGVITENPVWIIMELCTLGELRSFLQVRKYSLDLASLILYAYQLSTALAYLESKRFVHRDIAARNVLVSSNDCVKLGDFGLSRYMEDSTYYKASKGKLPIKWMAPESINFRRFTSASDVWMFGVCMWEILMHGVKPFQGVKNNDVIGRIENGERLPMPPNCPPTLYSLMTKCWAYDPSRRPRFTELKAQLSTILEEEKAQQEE
row,Structure (SMILES),IC50
1,"CN(c1ncccc1CNc1nc(Nc2cccc(C(=O)N(CCO)CCO)c2)ncc1C(F)(F)F)S(C)(=O)=O [Compound 129, N,N-bis(2-hydroxyethyl)-3-({4-[({2-[methyl(methylsulfonyl)amino]pyridin-3-yl}methyl)amino]-5-(trifluoromethyl)pyrimidin-2-yl}amino)benzamide]",0.76 nM
2,"Cc1ccc(N(C)S(C)(=O)=O)c(CNc2nc(Nc3ccc(C(N)=O)cc3)ncc2C(F)(F)F)c1 [Compound 110, 4-{[4-({5-methyl-2-[methyl(methylsulfonyl)amino]benzyl}amino)-5-(trifluoromethyl)pyrimidin-2-yl]amino}benzamide]",0.6 nM
3,"CC(C)[C@H](CO)NC(=O)c1cccc(Nc2ncc(C(F)(F)F)c(NCc3cccnc3N(C)S(C)(=O)=O)n2)c1 [Compound 161, N-[(1R)-1-(hydroxymethyl)-2-methylpropyl]-3-({4-(({2-[methyl(methylsulfonyl)amino]pyridin-3-yl}methyl)amino]-5-(trifluoromethyl)pyrimidin-2-yl}amino)benzamide]",3.74 nM
4,"CN(C)C(=O)c1ccc(Nc2ncc(C(F)(F)F)c(NCc3ccccc3NS(C)(=O)=O)n2)cc1 [Compound 225, N,N-dimethyl-4-{[4-({2-[(methylsuifonyl)amino]benzyl}amino)-5-(trifluoromethyl)pyrimidin-2-yl]amino}benzamide]",0.98 nM
5,"CC(C)NC(=O)c1ccc(Nc2ncc(C(F)(F)F)c(NCc3cccnc3N(C)S(C)(=O)=O)n2)cc1 [Compound 242, N-isopropyl-4-({4-[({2-[methyl(methylsulfonyl)amino]pyridin-3-yl}methyl)amino]-5-(trifluoromethyl)pyrimidin-2-yl}amino)benzamide]",1 nM
6,"CS(=O)(=O)c1cccc(CNc2nc(Nc3ccc(N4CCCS4(=O)=O)cc3)ncc2C(F)(F)F)c1 [Compound 29, N~2~-[4-(1,1-dioxidoisothiazolidin-2-yl)phenyl]-N-4~-[3-(methylsulfonyl)benzyl]-5-(trifluoromethyl)pyrimidine-2,4-diamine]",2.09 nM
7,"Cc1ccc(CNc2nc(Nc3ccc(S(N)(=O)=O)cc3)ncc2C(F)(F)F)c(N(C)S(C)(=O)=O)n1 [Compound 17, 4-({4-[({6-methyl-2-[methyl(methylsulfonyl)amino]pyridin-3-yl}methyl)amino]-5-(trifluoromethyl)pyrimidin-2-yl}amino)benzene-sulfonamide]",1.26 nM
8,"CN(c1ncccc1CNc1nc(Nc2cccc(C(=O)N3CC(O)C3)c2)ncc1C(F)(F)F)S(C)(=O)=O [Compound 90, N-[3-({[2-({3-{(3-hydroxyazetidin-1-yl)carbonyl]phenyl}amino)-5-(trifluoromethyl)pyrimidin-4-yl]amino}methyl)pyridin-2-yl]-N-methylmethane-sulfonamide]",0.72 nM
9,"CN(c1ncccc1CNc1nc(Nc2cccc(C(=O)N3CCC(C)(O)C3)c2)ncc1C(F)(F)F)S(C)(=O)=O (centres unmarked) [Compound 135, N-[3-({(2-({3-[(3-hydroxy-3-methyipyrrolidin-1-yl)carbonyl]phenyl}amino)-5-(trifluoromethyl)pyrimidin-4-yl]amino}methyl)pyridin-2-yl]-N-methylmethane-sulfonamide]",3.33 nM
10,"CN(C)C(=O)c1ccc(Nc2ncc(C(F)(F)F)c(NCc3ccccc3N(C)S(C)(=O)=O)n2)cc1 [Compound 224, N,N-dimethyl-4-{[4-({2-[methyl(methylsulfonyl)amino]benzyl}amino)-5-(trifluoromethyl)pyrimidin-2-yl]amino}benzamide]",0.6 nM
11,"CC(=O)NCCNC(=O)c1cccc(Nc2ncc(C(F)(F)F)c(NCc3cccnc3N(C)S(C)(=O)=O)n2)c1 [Compound 167, N-[2-(acetylamino)ethyl]-3-({4-[({2-[methyl(methylsulfonyl)amino]pyridin-3-yl}methyl)amino]-5-(trifluoromethyl)pyrimidin-2-yl}amino)benzamide]",3.44 nM
12,"CN(c1ncccc1CNc1nc(Nc2cccc(C(=O)N3CCNC(=O)C3)c2)ncc1C(F)(F)F)S(C)(=O)=O [Compound 213, N-methyl-N-[3-({[2-({3-[(3-oxopiperazin-1-yl)carbonyl]phenyl}amino)-5-(trifluoromethyl)pyrimidin-4-yl]amino}methyl)pyridin-2-yl]methanesulfonamide]",2.88 nM
13,"Cc1ccc(CNc2nc(Nc3ccc(N4CCCS4(=O)=O)cc3)ncc2C(F)(F)F)c(N(C)S(C)(=O)=O)n1 [Compound 28, N-[3-({[2-{[4-(1,1-dloxidolsothiazolidin-2-yl)phenyl]amino}-5-(trifluoromethyl)pyrimidin-4-yl]amino}methyl)-6-methylpyridin-2-yl]-N-methylmethanesulfonamide]",2.01 nM
14,"CN(c1ncccc1CNc1nc(Nc2ccc(C(=O)NCCCO)cc2)ncc1C(F)(F)F)S(C)(=O)=O [Compound 255, N-(3-hydroxypropyl)-4-({4-[({2-[methyl(methylsulfonyl)amino]pyridin-3-yl}methyl)amino]-5-(trifluoromethyl)pyrimidin-2-yl}amino)benzamide]",0.82 nM

# Other lines, results leading:
row,IC50,Structure (SMILES)
1,10.7 nM,"CN(c1nccnc1CNc1nc(Nc2ccc(F)c(C(N)=O)c2)ncc1C(F)(F)F)S(C)(=O)=O [Compound 382, 2-fluoro-5-({4-[({3-[methyl(methylsulfonyl)amino]pyrazin-2-yl}methyl)amino]-5-(trifluoromethyl)pyrimidin-2-yl}amino)benzamide]"
2,0.6 nM,"COc1ccc(Nc2ncc(C(F)(F)F)c(NCc3cccnc3N(C)S(C)(=O)=O)n2)cc1OC [Compound 282, N-{3-[({2-[(3,4-dimethoxyphenyl)amino]-5-(trifluoromethyl)pyrimidin-4-yl}amino)methyl]pyridin-2-yl}-N-methylmethane-sulfonamide]"
3,< 0.595 nM,"CC(N)c1ccc(Nc2ncc(C(F)(F)F)c(NCc3ccccc3N(C)S(C)(=O)=O)n2)cc1 (stereo in doubt) [Compound 362, N-[2-({[2-({4-[(1R)-1-aminoethyl]phenyl}amino)-5-(trifluoromethyl)pyrimidin-4-yl]amino}methyl)phenyl]-N-methylmethanesulfonamide]"
4,2.69 nM,"CN(c1ncccc1CNc1nc(Nc2ccc(C(=O)NC[C@@H]3C[C@H]3CO)cc2)ncc1C(F)(F)F)S(C)(=O)=O [Compound 273, N-{[(1R,2R)-2-(hydroxymethyl)cyclopropyl}methyl}-4-({4-[({2-[methyl(methylsulfonyl)amino]pyridin-3-yl}methyl)amino]-5-(trifluoromethyl)pyrimidin-2-yl}amino)benzamide]"
5,1.62 nM,"CN(c1nccnc1CNc1nc(Nc2ccc(C(C)(C)O)cc2)ncc1C(F)(F)F)S(C)(=O)=O [Compound 326, N-[3-({[2-{(4-(1-hydroxy-1-methylethyl)phenyl]amino}-5-(trifluoromethyl)pyrimidin-4-yl]amino}methyl)pyrazin-2-yl]-N-methylmethane-sulfonamide]"
6,< 0.595 nM,"CN(c1ncccc1CNc1nc(Nc2ccc(N3CCOCC3)cn2)ncc1C(F)(F)F)S(C)(=O)=O [Compound 293, N-methyl-N-{3-[({2-[(5-morpholin-4-ylpyridin-2-yl)amino]-5-(trifluoromethyl)pyrimidin-4-yl}amino)methyl]pyridin-2-yl]methanesulfonamide]"
7,2.64 nM,"CN(c1ncccc1CNc1nc(Nc2ccc(C(=O)N3CC(F)C3)cc2)ncc1C(F)(F)F)S(C)(=O)=O [Compound 272, N-[3-(([2-({4-[(3-fluoroazetidin-1-yl)carbonyl]phenyl}amino)-5-(trifluoromethyl)pyrimidin-4-yl]amino}methyl)pyridin-2-yl]-N-methylmethane-sulfonamide]"
8,4.75 nM,"CN(c1nccnc1CNc1nc(Nc2ccc(C3COC(C)(C)O3)cc2)ncc1C(F)(F)F)S(C)(=O)=O (centres unmarked) [Compound 409, N-[3-({[2-{[4-(2,2-dimethyl-1,3-dioxolan-4-yl)phenyl]amino}-5-(trifluoromethyl)pyrimidin-4-yl]amino}methyl)pyrazin-2-yl]-N-methylmethane-sulfonamide]"
9,5.8 nM,"CN(C(=O)c1ccc(Nc2ncc(C(F)(F)F)c(NCc3cccnc3N(C)S(C)(=O)=O)n2)cc1)C1CCCC1 [Compound 262, N-cyclopentyl-N-methyl-4-({4-[({2-[methyl(methylsulfonyl)amino]pyridin-3-yl}methyl)amino]-5-(trifluoromethyl)pyrimidin-2-yl}amino)benzamide]"
